From US12384789B2, “Compounds for treating Huntington's disease” (PTC Therapeutics, Inc., priority 2017, dated 2025)

Test system: Endogenous Huntingtin Protein
Experiment: Endogenous Huntingtin Protein Assay (Meso Scale Discovery ELISA-based electrochemiluminescence)
Assay type: cell-based
Details: MSD electrochemiluminescence, Table 1
Method in brief: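 MSD electrochemiluminescence sandwich ELISA: MW1 (expanded polyQ) or MAB2166 capture antibody at 1 μg/mL, samples incubated overnight at 4° C. Detection with rabbit monoclonal #5656S then SULFO-TAG anti-rabbit antibody, each 0.25 μg/mL for 1 h at room temperature.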

Row | Structure (SMILES) | IC50
1 | Cn1cc2cc(-c3cc4c(F)cc(C5=CCNCC5)cc4nn3)cc(F)c2n1 [Compound 134, 5-fluoro-3-(7-fluoro-2-methyl-2H-indazol-5-yl)-7-(1,2,3,6-tetrahydropyridin-4-yl)cinnoline] | ≤ 0.1 µM
2 | Cc1cn2nc(-c3cc(F)c4cc(C5CCNCC5)nnc4c3)cc(-n3ccnc3)c2n1 [Compound 194, 5-fluoro-7-[8-(1H-imidazol-1-yl)-2-methylimidazo[1,2-b]pyridazin-6-yl]-3-(piperidin-4-yl)cinnoline] | 0.1 to 0.5 µM
3 | CCN1[C@H](C)CC(c2cc3c(F)cc(-c4cc(C)c5nc(C)cn5n4)cc3nn2)C[C@@H]1C (stereo partly drawn) [Compound 168, 7-(2,8-dimethylimidazo[1,2-b]pyridazin-6-yl)-3-[(2R,6S)-1-ethyl-2,6-dimethylpiperidin-4-yl]-5-fluorocinnoline] | 0.1 to 0.5 µM
4 | Cc1cc(-c2cc(F)c3nc(N(C)C4CCNCC4)nnc3c2)cc2cn(C)nc12 [Compound 42, 7-(2,7-dimethyl-2H-indazol-5-yl)-5-fluoro-N-methyl-N-(piperidin-4-yl)-1,2,4-benzotriazin-3-amine] | 0.1 to 0.5 µM
5 | Cc1cn2nc(-c3cc(F)c4cc(C5=CCNCC5)nnc4c3)cc(C)c2n1 [Compound 225, 7-(2,8-dimethylimidazo[1,2-b]pyridazin-6-yl)-5-fluoro-3-(1,2,3,6-tetrahydropyridin-4-yl)cinnoline] | ≤ 0.1 µM
6 | Cn1cc2cc(-c3ncc4cc(C5=CCNCC5)cc(F)c4n3)cc(F)c2n1 [Compound 165, 8-fluoro-2-(7-fluoro-2-methyl-2H-indazol-5-yl)-6-(1,2,3,6-tetrahydropyridin-4-yl)quinazoline] | ≤ 0.1 µM
7 | CCN1CCC(c2cc3ccc(-c4cc(C)c5nc(C)cn5n4)cc3nn2)CC1 [Compound 85, 7-(2,8-dimethylimidazo[1,2-b]pyridazin-6-yl)-3-(1-ethylpiperidin-4-yl)cinnoline] | 0.1 to 0.5 µM
8 | Cc1cc(-c2cc3cnc(C4CCNCC4)nc3cc2F)cc2cn(C)nc12 [Compound 39, 6-(2,7-dimethyl-2H-indazol-5-yl)-7-fluoro-2-(piperidin-4-yl)quinazoline] | 1 to 3 µM
9 | Cc1nc(-c2cc(F)c3nc(C4CCNCC4)nnc3c2)cc2cn(C)nc12 [Compound 67, 7-(2,7-dimethyl-2H-pyrazolo[3,4-c]pyridin-5-yl)-5-fluoro-3-(piperidin-4-yl)-1,2,4-benzotriazine] | 0.1 to 0.5 µM
10 | Cc1cn2cc(-c3cc(F)c4nc(C5CCNCC5)nnc4c3)cc(C(F)(F)F)c2n1 [Compound 61, 5-fluoro-7-[2-methyl-8-(trifluoromethyl)imidazo[1,2-a]pyridin-6-yl]-3-(piperidin-4-yl)-1,2,4-benzotriazine] | 0.5 to 1 µM
11 | CCN1CCC(c2cc3c(F)cc(-c4ccc5nc(C)cn5n4)cc3nn2)CC1 [Compound 100, 3-(1-ethylpiperidin-4-yl)-5-fluoro-7-(2-methylimidazo[1,2-b]pyridazin-6-yl)cinnoline] | ≤ 0.1 µM
12 | Cc1cn2nc(-c3cc(F)c4cc(C5CCN(CCO)CC5)nnc4c3)cc(C#N)c2n1 [Compound 178, 6-{5-fluoro-3-[1-(2-hydroxyethyl)piperidin-4-yl]cinnolin-7-yl}-2-methylimidazo[1,2-b]pyridazine-8-carbonitrile] | ≤ 0.1 µM
13 | Cc1cn2cc(-c3cc4c(F)cc(C5CCNCC5)cc4nn3)cc(F)c2n1 [Compound 128, 5-fluoro-3-(8-fluoro-2-methylimidazo[1,2-a]pyridin-6-yl)-7-(piperidin-4-yl)cinnoline] | ≤ 0.1 µM
14 | COc1cc(-c2cc(F)c3nc(C4CCNCC4)ccc3c2)nn2cc(C)nc12 [Compound 51, 8-fluoro-6-(8-methoxy-2-methylimidazo[1,2-b]pyridazin-6-yl)-2-(piperidin-4-yl)quinoline] | ≤ 0.1 µM
15 | Cc1cn2nc(-c3nnc4cc(C5CCNCC5)cc(F)c4n3)cc(C)c2n1 [Compound 57, 3-(2,8-dimethylimidazo[1,2-b]pyridazin-6-yl)-5-fluoro-7-(piperidin-4-yl)-1,2,4-benzotriazine] | ≤ 0.1 µM

Results, then the compound that gave them:

Row | IC50 | Structure (SMILES)
16 | ≤ 0.1 µM | CCN1CCC(c2cc3c(F)cc(-c4cc(C5CC5)c5nc(C)cn5n4)cc3nn2)CC1 [Compound 115, 7-(8-cyclopropyl-2-methylimidazo[1,2-b]pyridazin-6-yl)-3-(1-ethylpiperidin-4-yl)-5-fluorocinnoline]
17 | ≤ 0.1 µM | Cc1cn2nc(-c3cc(F)c4cc(C5CCCN(CCO)CC5)nnc4c3)cc(C)c2n1 (centres unmarked) [Compound 190, 2-{4-[7-(2,8-dimethylimidazo[1,2-b]pyridazin-6-yl)-5-fluorocinnolin-3-yl]azepan-1-yl}ethan-1-ol]
18 | ≤ 0.1 µM | Cc1cn2nc(-c3cc(F)c4cc(C5CCN(CCF)CC5)nnc4c3)cc(C)c2n1 [Compound 83, 7-(2,8-dimethylimidazo[1,2-b]pyridazin-6-yl)-5-fluoro-3-[1-(2-fluoroethyl)piperidin-4-yl]cinnoline]
19 | ≤ 0.1 µM | Cc1cn2nc(-c3cc(F)c4cc(N5CC[C@@H](N(C)C)C5)nnc4c3)cc(C)c2n1 [Compound 89, (3R)-1-[7-(2,8-dimethylimidazo[1,2-b]pyridazin-6-yl)-5-fluorocinnolin-3-yl]-N,N-dimethylpyrrolidin-3-amine]
20 | ≤ 0.1 µM | Cc1cn2cc(-c3cc(F)c4cc(C5CCNCC5)nnc4c3)cc(F)c2n1 [Compound 92, 5-fluoro-7-(8-fluoro-2-methylimidazo[1,2-a]pyridin-6-yl)-3-(piperidin-4-yl)cinnoline]
21 | ≤ 0.1 µM | CCN1CCC(c2cc3c(F)cc(-c4cc(OC)c5nn(C)cc5n4)cc3nn2)CC1 [Compound 173, 3-(1-ethylpiperidin-4-yl)-5-fluoro-7-(7-methoxy-2-methyl-2H-pyrazolo[4,3-b]pyridin-5-yl)cinnoline]
22 | ≤ 0.1 µM | Cc1cn2nc(-c3cc(F)c4cc(C5CC(C)N(CCO)C(C)C5)nnc4c3)cc(C)c2n1 (centres unmarked) [Compound 155, 2-{(25,65)-4-[7-(2,8-dimethylimidazo[1,2-b]pyridazin-6-yl)-5-fluorocinnolin-3-yl]-2,6-dimethylpiperidin-1-yl}ethan-1-ol]
23 | ≤ 0.1 µM | COc1cc(-c2cc(F)c3cc(C4CCNCC4)nnc3c2)nc2cn(C)nc12 [Compound 163, 5-fluoro-7-(7-methoxy-2-methyl-2H-pyrazolo[4,3-b]pyridin-5-yl)-3-(piperidin-4-yl)cinnoline]
24 | ≤ 0.1 µM | Cc1cn2nc(-c3cc(F)c4nc(C5CCN(C)CC5)nnc4c3)cc(C)c2n1 [Compound 69, 7-(2,8-dimethylimidazo[1,2-b]pyridazin-6-yl)-5-fluoro-3-(1-methylpiperidin-4-yl)-1,2,4-benzotriazine]
25 | ≤ 0.1 µM | Cc1cn2nc(-c3cc(F)c4cc(C5CCN(C)CC5)nnc4c3)cc(C#N)c2n1 [Compound 176, 6-[5-fluoro-3-(1-methylpiperidin-4-yl)cinnolin-7-yl]-2-methylimidazo[1,2-b]pyridazine-8-carbonitrile]
26 | ≤ 0.1 µM | COc1cc(-c2nnc3cc(C4CCNCC4)ccc3n2)cc2cn(C)nc12 [Compound 52, 3-(7-methoxy-2-methyl-2H-indazol-5-yl)-7-(piperidin-4-yl)-1,2,4-benzotriazine]
